ChEMBL document CHEMBL2417445, “Access to 7β-analogs of codeine with mixed μ/δ agonist activity via 6,7-α-epoxide opening” (Bioorg Med Chem Lett, 2013)

Columns and labels:
[1] = molecular target: T1, Delta-type opioid receptor (Homo sapiens, UniProt P41143); assay: Activation of human DOR assessed as inhibition of forskolin-stimulated cAMP accumulation after 30 mins by cell based TR-FRET assay relative to DPDPE; assay type: functional
[2] = molecular target: Mu-type opioid receptor (Mus musculus) (UniProt P42866); assay: Activation of mouse MOR assessed as inhibition of forskolin-stimulated cAMP accumulation after 30 mins by cell based TR-FRET assay relative to DAMGO; assay type: functional
Mu-type opioid receptor [3] = molecular target: Mu-type opioid receptor (Mus musculus, UniProt P42866); assay: Agonist activity at mouse MOR assessed as inhibition of forskolin-stimulated cAMP accumulation after 30 mins by cell based TR-FRET assay; assay type: functional
Homo sapiens [4] = organism: Homo sapiens; assay: Selectivity ratio of EC50 for human KOR to EC50 for human MOR
Mu-type opioid receptor [5] = molecular target: T2, Mu-type opioid receptor (Homo sapiens, UniProt P35372); assay: Agonist activity at human MOR assessed as inhibition of forskolin-stimulated cAMP accumulation after 30 mins by cell based TR-FRET assay; assay type: functional
Homo sapiens [6] = organism: Homo sapiens; assay: Selectivity ratio of EC50 for human KOR to EC50 for human DOR
[7] = molecular target: T1, Delta-type opioid receptor; assay: Agonist activity at human DOR assessed as inhibition of forskolin-stimulated cAMP accumulation after 30 mins by cell based TR-FRET assay; assay type: functional
[8] = molecular target: Kappa-type opioid receptor (Mus musculus, UniProt P33534); assay: Agonist activity at mouse KOR assessed as inhibition of forskolin-stimulated cAMP accumulation after 30 mins by cell based TR-FRET assay; assay type: functional
[9] = molecular target: Kappa-type opioid receptor (Homo sapiens, UniProt P41145); assay type: functional, cell-based
Description: Agonist activity at human KOR assessed as inhibition of forskolin-stimulated cAMP accumulation after 30 mins by cell based TR-FRET assay

Mu-type opioid receptor [10] = molecular target: T2, Mu-type opioid receptor; assay: Ratio of morphine EC50 to compound EC50 for human MOR

Chain of Mu-type opioid receptor (Mus musculus) (P42866 whole entry): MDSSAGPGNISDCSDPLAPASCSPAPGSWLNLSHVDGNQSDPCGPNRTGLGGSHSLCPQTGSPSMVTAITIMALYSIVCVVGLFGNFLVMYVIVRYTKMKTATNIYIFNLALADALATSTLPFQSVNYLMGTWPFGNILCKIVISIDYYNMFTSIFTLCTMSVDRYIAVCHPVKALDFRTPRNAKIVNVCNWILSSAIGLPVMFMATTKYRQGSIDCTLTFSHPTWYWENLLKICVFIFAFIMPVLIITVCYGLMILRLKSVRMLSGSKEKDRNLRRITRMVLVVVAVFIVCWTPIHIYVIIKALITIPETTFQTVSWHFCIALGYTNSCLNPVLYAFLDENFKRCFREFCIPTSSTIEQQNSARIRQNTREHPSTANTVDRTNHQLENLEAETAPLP
Chain of Mu-type opioid receptor (Mus musculus, UniProt P42866) (P42866 whole entry): as above
Chain of Kappa-type opioid receptor (Mus musculus, UniProt P33534) (P33534 whole entry): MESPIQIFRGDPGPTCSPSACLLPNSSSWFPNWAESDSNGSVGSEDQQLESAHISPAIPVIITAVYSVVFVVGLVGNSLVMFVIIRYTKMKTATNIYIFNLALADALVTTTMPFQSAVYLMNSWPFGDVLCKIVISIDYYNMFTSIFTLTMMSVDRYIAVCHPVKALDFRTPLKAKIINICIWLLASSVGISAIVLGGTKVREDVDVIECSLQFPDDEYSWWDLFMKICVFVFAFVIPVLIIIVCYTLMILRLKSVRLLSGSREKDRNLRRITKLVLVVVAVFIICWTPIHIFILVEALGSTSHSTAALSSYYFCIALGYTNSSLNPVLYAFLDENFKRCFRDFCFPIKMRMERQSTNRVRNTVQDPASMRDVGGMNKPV
Chain of Kappa-type opioid receptor (Homo sapiens, UniProt P41145) (P41145 whole entry): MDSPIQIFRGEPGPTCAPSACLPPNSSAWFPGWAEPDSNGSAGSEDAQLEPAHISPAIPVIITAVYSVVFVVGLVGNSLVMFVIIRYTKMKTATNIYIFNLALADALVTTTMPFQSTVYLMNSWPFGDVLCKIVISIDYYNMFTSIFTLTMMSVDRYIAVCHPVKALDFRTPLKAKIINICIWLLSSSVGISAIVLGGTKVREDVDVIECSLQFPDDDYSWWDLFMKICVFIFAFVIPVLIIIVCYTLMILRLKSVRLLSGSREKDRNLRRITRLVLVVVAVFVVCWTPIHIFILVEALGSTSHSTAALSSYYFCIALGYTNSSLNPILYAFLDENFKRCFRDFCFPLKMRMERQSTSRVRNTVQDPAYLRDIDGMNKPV
T2 sequence (P35372 whole entry): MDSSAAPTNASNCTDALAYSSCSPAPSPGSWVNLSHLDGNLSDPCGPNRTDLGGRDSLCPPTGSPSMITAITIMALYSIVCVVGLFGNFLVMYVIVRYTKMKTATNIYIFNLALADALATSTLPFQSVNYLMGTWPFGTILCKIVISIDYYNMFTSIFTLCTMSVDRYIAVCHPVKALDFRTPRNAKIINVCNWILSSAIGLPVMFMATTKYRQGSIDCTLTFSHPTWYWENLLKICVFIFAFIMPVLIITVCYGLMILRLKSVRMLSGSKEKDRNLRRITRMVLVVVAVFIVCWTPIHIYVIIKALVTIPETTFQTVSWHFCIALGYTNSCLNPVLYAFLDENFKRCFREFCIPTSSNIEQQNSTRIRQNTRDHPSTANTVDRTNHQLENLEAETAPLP
T1 sequence (P41143 whole entry): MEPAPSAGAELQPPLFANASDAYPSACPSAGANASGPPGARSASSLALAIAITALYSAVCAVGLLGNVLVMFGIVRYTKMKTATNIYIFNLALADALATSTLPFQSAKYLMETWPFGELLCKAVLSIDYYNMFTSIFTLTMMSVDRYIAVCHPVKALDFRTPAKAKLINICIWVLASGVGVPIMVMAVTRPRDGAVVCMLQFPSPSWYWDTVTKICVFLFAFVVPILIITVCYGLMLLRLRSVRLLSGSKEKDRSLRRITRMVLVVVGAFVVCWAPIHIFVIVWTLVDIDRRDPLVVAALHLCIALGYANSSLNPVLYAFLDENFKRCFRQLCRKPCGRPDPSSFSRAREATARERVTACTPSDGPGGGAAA

SMILES	inhibition [1] [%]	inhibition [2] [%]	EC50 (Mu-type opioid receptor [3]) [µM]	Ratio EC50 (Homo sapiens [4])	EC50 (Mu-type opioid receptor [5]) [µM]	Ratio EC50 (Homo sapiens [6])	EC50 [7] [µM]	EC50 [8] [µM]	EC50 [9] [µM]	Ratio EC50 (Mu-type opioid receptor [10])
CN1CC[C@]23c4c5ccc(O)c4O[C@H]2[C@@H](O)C=C[C@H]3[C@H]1C5	69	97								
COc1ccc2c3c1O[C@H]1[C@@H](O)[C@H](O)C[C@H]4[C@@H](C2)N(C)CC[C@@]341	117	96	6.3	8	16	1	100	159	126	
COc1cc(C)c2c3c1O[C@H]1[C@H](F)[C@H](C)C[C@H]4[C@@H](C2)N(C)CC[C@@]341	86	78	0.8	1	3.2	1	3.2	10	5	
COc1cc(C)c2c3c1O[C@H]1[C@@H](O)[C@H](C)C[C@H]4[C@@H](C2)N(C)CC[C@@]341	73	77	2	3	5	1	16	50		
C[C@@H]1C[C@H]2[C@H]3Cc4ccc(O)c5c4[C@@]2(CCN3C)[C@@H](O5)[C@H]1O	107	99	0.01	80	0.02	20	0.08	1.6	1.6	2
COc1ccc2c3c1O[C@H]1[C@@H](O)[C@H](C)C[C@H]4[C@@H](C2)N(C)CC[C@@]341	97	97	0.6	13	2	8	3.2	32	25	
COc1ccc2c3c1O[C@H]1[C@@H](O)[C@H](F)C[C@H]4[C@@H](C2)N(C)CC[C@@]341	90	79	8	2	40	1	79			
C[C@@H](NC(=O)[C@@H](N)Cc1ccc(O)cc1)C(=O)NCC(=O)N(C)[C@@H](Cc1ccccc1)C(=O)NCCO [DAMGO]	99									
COc1ccc2c3c1O[C@H]1[C@@H](OC)[C@H](C)C[C@H]4[C@@H](C2)N(C)CC[C@@]341	94	92	0.8	10	3.2	13	2.5	50	32	
COc1ccc2c3c1O[C@H]1[C@@H](O)[C@H](OC)C[C@H]4[C@@H](C2)N(C)CC[C@@]341	84	86	4	3	16	4	13		50	
COc1ccc2c3c1O[C@H]1C(=O)CC[C@@]4(O)[C@@H](C2)N(C)CC[C@]314 [OXYCODONE]	93	97	0.16					16		
